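Protocol summary: plate cells (96-well), add compound at 5 concentrations, incubate 48 h, interpolate endpoints linearly. TGI denotes the concentration required for complete inhibition of growth.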
Legend:
Assay in all cases: growth of human tumour cells (NCI), 48 h
[1] = system: A549 NSCLC
[2] = system: OVCAR-4 ovarian
[3] = system: M14 melanoma
[4] = system: NCI-H460 lung
[5] = system: K-562 leukemia
[6] = system: NCI/ADR-RES ovarian
[7] = system: SF-295 CNS
[8] = system: SK-MEL-2 melanoma
[9] = system: UACC-257 melanoma
[10] = system: RXF 393 renal
[11] = system: NCI-H23 lung
[12] = system: RPMI-8226 leukemia
[13] = system: COLO 205 colon
[14] = system: SK-MEL-5 melanoma
[15] = system: DU-145 prostate
[16] = system: KM12 colon
[17] = system: NCI-H522 lung
[18] = system: SF-539 CNS
[19] = system: UO-31 renal
[20] = system: EKVX NSCLC
[21] = system: UACC-62 melanoma
[22] = system: HOP-62 NSCLC
[23] = system: SF-268 CNS
[24] = system: A498 renal
[25] = system: OVCAR-8 ovarian
[26] = system: PC-3 prostate
[27] = system: CAKI-1 renal
[28] = system: SR leukemia
[29] = system: SK-OV-3 ovarian
[30] = system: OVCAR-3 ovarian
[31] = system: SK-MEL-28 melanoma
[32] = system: MALME-3M melanoma
[33] = system: HT29 colon
[34] = system: MDA-N
[35] = system: ACHN renal
[36] = system: SN12C renal
[37] = system: MOLT-4 leukemia
[38] = system: T-47D breast
[39] = system: HCT-15 colon
[40] = system: SW-620 colon
[41] = system: HS 578T breast
[42] = system: HOP-92 NSCLC
[43] = system: U251 CNS
[44] = system: HCT-116 colon
[45] = system: MDA-MB-231 breast
[46] = system: MCF7 breast
[47] = system: LOX IMVI melanoma
[48] = system: HL-60(TB) leukemia
[49] = system: OVCAR-5 ovarian
[50] = system: SNB-75 CNS
[51] = system: NCI-H226 lung
[52] = system: SNB-19 CNS
[53] = system: TK-10 renal
[54] = system: HCC-2998 colon
[55] = system: MDA-MB-435
[56] = system: 786-0 renal
[57] = system: IGROV1 ovarian
[58] = system: CCRF-CEM leukemia

Structure (SMILES): Cc1ccc(C(=O)CC(O)(C(F)(F)F)C(F)(F)F)cc1[N+](=O)[O-]
- TGI [1]: 33 µM
- TGI [2]: 30.7 µM
- TGI [3]: 17.9 µM
- TGI [4]: 25.1 µM
- TGI [5]: > 28.2 µM
- TGI [6]: 44.2 µM
- TGI [7]: 19.7 µM
- TGI [8]: 34 µM
- TGI [9]: 9.39 µM
- TGI [10]: 27.1 µM
- TGI [11]: 23.7 µM
- TGI [12]: 69.4 µM
- TGI [13]: 36.5 µM
- TGI [14]: 30.8 µM
- TGI [15]: 13.7 µM
- TGI [16]: 6.31 µM
- TGI [17]: 1.19 µM
- TGI [18]: 31.7 µM
- TGI [19]: 10.6 µM
- TGI [20]: 31.7 µM
- TGI [21]: 21.9 µM
- TGI [22]: 29.2 µM
- TGI [23]: 31.4 µM
- TGI [24]: 35.8 µM
- TGI [25]: 25.9 µM
- TGI [26]: 27.2 µM
- TGI [27]: 4.58 µM
- TGI [28]: 14.3 µM
- TGI [29]: 32.2 µM
- TGI [30]: 6.44 µM
- TGI [31]: 23.4 µM
- TGI [32]: 31.8 µM
- TGI [33]: 4.12 µM
- TGI [34]: 28.2 µM
- TGI [35]: 28.9 µM
- TGI [36]: 25 µM
- TGI [37]: 68.5 µM
- TGI [38]: 38.9 µM
- TGI [39]: 13.6 µM
- TGI [40]: 42.8 µM
- TGI [41]: 42.6 µM
- TGI [42]: 22.3 µM
- TGI [43]: 31.2 µM
- TGI [44]: 12.1 µM
- TGI [45]: 21.5 µM
- TGI [46]: 11 µM
- TGI [47]: 5.22 µM
- TGI [48]: 4.41 µM
- TGI [49]: 33.4 µM
- TGI [50]: 33.2 µM
- TGI [51]: 38.7 µM
- TGI [52]: 22.6 µM
- TGI [53]: 33.3 µM
- TGI [54]: 12.9 µM
- TGI [55]: 22.5 µM
- TGI [56]: 25.9 µM
- TGI [57]: 11.2 µM

Structure (SMILES): CC1=NN(c2cccc(Cl)c2)C2(C1=Cc1ccccc1)C(Cl)C(=O)N2c1nc2ccccc2s1 (stereo not drawn)
- TGI [2]: 64.7 µM
- TGI [3]: 46.2 µM
- TGI [4]: 28.5 µM
- TGI [5]: > 100 µM
- TGI [6]: 48.7 µM
- TGI [7]: 52.3 µM
- TGI [8]: 38.5 µM
- TGI [9]: 74.7 µM
- TGI [10]: 28 µM
- TGI [11]: 31.5 µM
- TGI [12]: > 100 µM
- TGI [14]: 32.5 µM
- TGI [15]: 33.2 µM
- TGI [16]: 33.7 µM
- TGI [17]: 36 µM
- TGI [18]: > 100 µM
- TGI [19]: 31.9 µM
- TGI [20]: > 100 µM
- TGI [22]: 45.3 µM
- TGI [23]: 97.6 µM
- TGI [24]: 42.8 µM
- TGI [25]: > 100 µM
- TGI [26]: 37.6 µM
- TGI [27]: 41.9 µM
- TGI [28]: 67.3 µM
- TGI [29]: 52.3 µM
- TGI [30]: 40.6 µM
- TGI [31]: > 100 µM
- TGI [33]: 40.5 µM
- TGI [34]: 41.3 µM
- TGI [35]: 42.4 µM
- TGI [37]: 85.9 µM
- TGI [38]: 59.9 µM
- TGI [39]: 31.5 µM
- TGI [40]: 42.4 µM
- TGI [41]: > 100 µM
- TGI [42]: 31.6 µM
- TGI [43]: 29.7 µM
- TGI [44]: 30.3 µM
- TGI [45]: 51.3 µM
- TGI [46]: 70.6 µM
- TGI [47]: 64 µM
- TGI [48]: 66.4 µM
- TGI [49]: 55.8 µM
- TGI [58]: > 100 µM
- TGI [51]: 67.8 µM
- TGI [53]: > 100 µM
- TGI [54]: 31.1 µM
- TGI [55]: 41.1 µM
- TGI [56]: 32.9 µM
- TGI [57]: 43.7 µM

Structure (SMILES): C=CC1(c2ccc(-c3ccccc3)cc2)OCCO1
- TGI [1]: > 100 µM
- TGI [2]: > 100 µM
- TGI [3]: > 100 µM
- TGI [4]: > 100 µM
- TGI [5]: 61.9 µM
- TGI [6]: > 100 µM
- TGI [7]: > 100 µM
- TGI [8]: 53.7 µM
- TGI [9]: > 100 µM
- TGI [10]: 88.6 µM
- TGI [11]: 89.8 µM
- TGI [12]: > 100 µM
- TGI [13]: > 100 µM
- TGI [14]: > 100 µM
- TGI [15]: > 100 µM
- TGI [16]: > 100 µM
- TGI [17]: > 100 µM
- TGI [18]: > 100 µM
- TGI [19]: > 100 µM
- TGI [20]: > 100 µM
- TGI [21]: 89.1 µM
- TGI [22]: > 100 µM
- TGI [23]: > 100 µM
- TGI [25]: > 100 µM
- TGI [26]: > 100 µM
- TGI [28]: 84.6 µM
- TGI [29]: > 100 µM
- TGI [30]: > 100 µM
- TGI [31]: > 100 µM
- TGI [32]: > 100 µM
- TGI [33]: 81.2 µM
- TGI [34]: > 100 µM
- TGI [35]: > 100 µM
- TGI [36]: > 100 µM
- TGI [37]: > 100 µM
- TGI [38]: > 100 µM
- TGI [39]: > 100 µM
- TGI [40]: > 100 µM
- TGI [41]: 69 µM
- TGI [42]: 87.1 µM
- TGI [43]: > 100 µM
- TGI [44]: > 100 µM
- TGI [45]: > 100 µM
- TGI [46]: > 100 µM
- TGI [47]: > 100 µM
- TGI [49]: > 100 µM
- TGI [58]: 86.4 µM
- TGI [50]: > 100 µM
- TGI [51]: 64.1 µM
- TGI [52]: > 100 µM
- TGI [53]: > 100 µM
- TGI [54]: > 100 µM
- TGI [55]: > 100 µM
- TGI [56]: > 100 µM
- TGI [57]: > 100 µM
